The nature of data set [1]: Downregulation of lovastatin-induced HMGCR expression in CHO-K1 cells assessed as fold change in HMGCR expression at 1 uM incubated for 16 hrs by immunoblot analysis (reference value: 15.2). The class given is functional, Cricetulus griseus.
Data set [2] is described as follows: Downregulation of lovastatin-induced HMGCR expression in CHO-K1 cells assessed as fold change in HMGCR expression at 10 uM incubated for 16 hrs by immunoblot analysis (reference value: 15.2). The class given is functional, Cricetulus griseus. For orientation: A western blot detects proteins with antibodies after separation by electrophoresis.
A further data set has as its system LX-2. Put plainly: Downregulation of TGF-beta-1-induced TIMP1 mRNA levels in serum starved human LX2 cells pretreated with TGF-beta-1 for 6 hrs followed by compound treatment for 24 hrs by SYBR green dye based qRT-PCR analysis. To be noted: dose <= 2.0 µM, DDE = dose-dependent effect. The class given is functional, cell-based. Background: Quantitative PCR measures a nucleic acid by following its amplification.

The test system of a further data set is CHO-7. Put plainly: Growth inhibition of CHO-7 cells at 0.3 to 10 uM cultured for 7 days in sterol depleted medium in the absence of cholesterol and measured on day 8 by crystal violet staining based microscopic analysis. The format is functional, cell-based. To be noted: Cricetulus griseus, dose 0.3-10 µM, time 8.0 day.
Data set [3] in a line: Downregulation of lovastatin-induced HMGCR expression in CHO-K1 cells assessed as fold change in HMGCR expression at 3 uM incubated for 16 hrs by immunoblot analysis (reference value: 15.2). The format is functional, Cricetulus griseus.
For data set [4], the system named is RAW264.7. Put plainly: Downregulation of LPS-stimulated IL-1-beta mRNA levels in mouse RAW264.7 cells pretreated with LPS for 2 hrs followed by compound treatment for 24 hrs by SYBR green dye based qRT-PCR analysis. The format is functional, cell-based. The settings on record: dose <= 2.0 µM, DDE = dose-dependent effect.
The nature of data set [5]: Downregulation of HMGCR expression in CHO-K1 cells assessed as fold change in HMGCR expression at 10 uM incubated for 16 hrs by immunoblot analysis (reference value: 1.0). The class given is functional, Cricetulus griseus.
Data set [6] concerns RAW264.7. Put plainly: Downregulation of LPS-stimulated cholesterol levels in mouse RAW264.7 cells pretreated with LPS for 2 hrs followed by compound treatment for 24 hrs. The class given is functional, cell-based. To be noted: dose <= 2.0 µM, DDE = dose-dependent effect.
Data set [7] has as its system RAW264.7. Put plainly: Downregulation of LPS-stimulated TNF-alpha mRNA levels in mouse RAW264.7 cells pretreated with LPS for 2 hrs followed by compound treatment for 24 hrs by SYBR green dye based qRT-PCR analysis. The class given is functional, cell-based. The settings on record: dose <= 2.0 µM, DDE = dose-dependent effect.
The nature of data set [8]: Toxicity in human SV589 cells assessed as cholesterol accumulation in lysosome at 10 uM incubated for 16 hrs by immunofluorescence based confocal microscopy. The class given is cell-based. To be noted: sv-589, 16 h.

The structures appear in SMILES notation. Calls of active or inactive are those of the source. The rule behind the calls is not given here.

For `CC(=O)n1ncc2c1C(C)(C)C1=CC[C@H]3[C@@H]4CC[C@H]([C@H](C)CCC(=O)N5CCOCC5)[C@@]4(C)CC[C@@H]3[C@@]1(C)C2`, the “fold change (FC)” value in data set [1] came to 2.4; in data set [2] it was 0.4; in data set [3], 1; in data set [5], 0.1. Besides, the Activity result in the data set on LX-2 was “Dde”; with RAW264.7 [4] it was “Dde”; in the data set on RAW264.7 [6], “Dde”; in the data set with RAW264.7 [7], “Dde”; in data set [8] it was “Non-Toxic”. The inhibition result with CHO-7 is “Active”.
